# US12589094B2, “Concomitant administration of glucocorticoid receptor modulator relacorilant and paclitaxel, a dual substrate of CYP2C8 and CYP3A4” (Corcept Therapeutics Incorporated, priority 2020, dated 2026)
# “And” between values parts separate entries of the source, which are not always exact repeats. Identical values can stand only once. “Also recorded” adds a separate entry of the source.
# Experiments:
# [1] = target: T1, CYP3A4 (Homo sapiens, UniProt P08684); details: for AUC0-tz, Ratio of Geometric LSMs (%) / AUCinf, Ratio of Geometric LSMs (%) / Cmax, Ratio of Geometric LSMs (%): 100 * Test/Reference, midazolam with 350 mg relacorilant (Day 14) vs midazolam alone (Day 1)
# T1 sequence (P08684 whole entry): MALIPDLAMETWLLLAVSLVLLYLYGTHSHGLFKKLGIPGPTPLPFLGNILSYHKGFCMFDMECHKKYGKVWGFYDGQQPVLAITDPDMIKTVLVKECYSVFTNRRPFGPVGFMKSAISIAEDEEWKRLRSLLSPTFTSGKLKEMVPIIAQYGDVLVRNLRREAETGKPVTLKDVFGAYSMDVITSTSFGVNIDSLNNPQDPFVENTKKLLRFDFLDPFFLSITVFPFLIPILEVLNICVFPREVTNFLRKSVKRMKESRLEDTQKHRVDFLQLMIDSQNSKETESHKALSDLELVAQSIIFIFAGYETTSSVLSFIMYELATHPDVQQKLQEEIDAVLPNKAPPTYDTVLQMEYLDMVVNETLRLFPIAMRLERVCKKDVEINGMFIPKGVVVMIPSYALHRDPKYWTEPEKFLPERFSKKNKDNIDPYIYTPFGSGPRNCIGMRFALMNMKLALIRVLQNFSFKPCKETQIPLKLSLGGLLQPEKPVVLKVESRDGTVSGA
# Protocol: (§1) An open-label, crossover study was conducted in healthy subjects to determine the effect of relacorilant on the plasma exposure of midazolam, a known substrate of CYP3A4, and pioglitazone, a known substrate of CYP2C8. A single dose of midazolam 2.5 mg was administered alone and intensive pharmacokinetic (PK) samples were collected before dosing (0 hour) and at 0.25, 0.5, 1, 1.5, 2, 4, 6, 8, 12, 16, and 24 hours post-dose. […] Relacorilant 350 mg was then administered once a day for 9 consecutive days. On the tenth day of once-daily relacorilant dosing, a single dose of midazolam 2.5 mg was administered in combination with relacorilant 350 mg and intensive PK samples were again collected at pre-dose though 24 hours post-dose.
# [2] = target: T1, CYP3A4; test: clinical; details: in vivo, po, 2.5 mg
# Protocol: as §1
# [3] = target: T2, CYP2C8 (Homo sapiens, UniProt P10632); test: Clinical drug-drug interaction study in healthy volunteers: effect of relacorilant on plasma pioglitazone (CYP2C8 substrate)
# T2 sequence (P10632 1-490): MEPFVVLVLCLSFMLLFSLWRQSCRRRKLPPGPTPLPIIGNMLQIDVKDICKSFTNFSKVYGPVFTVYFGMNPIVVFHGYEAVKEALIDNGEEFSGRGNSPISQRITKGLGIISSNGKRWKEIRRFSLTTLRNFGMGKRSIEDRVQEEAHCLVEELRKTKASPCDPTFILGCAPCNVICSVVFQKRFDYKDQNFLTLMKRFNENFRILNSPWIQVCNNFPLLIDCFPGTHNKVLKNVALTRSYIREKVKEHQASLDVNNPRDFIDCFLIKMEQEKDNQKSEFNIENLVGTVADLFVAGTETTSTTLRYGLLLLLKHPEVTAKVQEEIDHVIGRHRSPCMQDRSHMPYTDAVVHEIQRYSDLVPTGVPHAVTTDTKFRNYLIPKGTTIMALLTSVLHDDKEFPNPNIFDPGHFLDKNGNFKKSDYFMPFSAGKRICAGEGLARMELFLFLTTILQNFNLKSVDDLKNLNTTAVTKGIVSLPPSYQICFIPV
# Protocol: An open-label, crossover study was conducted in healthy subjects to determine the effect of relacorilant on the plasma exposure of midazolam, a known substrate of CYP3A4, and pioglitazone, a known substrate of CYP2C8. A single dose of midazolam 2.5 mg was administered alone and intensive pharmacokinetic (PK) samples were collected before dosing (0 hour) and at 0.25, 0.5, 1, 1.5, 2, 4, 6, 8, 12, 16, and 24 hours post-dose. On the following day, a single dose of 15 mg of pioglitazone was administered alone and intensive PK samples were collected before dosing (0 hour) and at 0.5, 1, 1.5, 2, 2.5, 3, 4, 6, 8, 12, 18, 24, 36, 48, 60, and 72 hours post-dose. Relacorilant 350 mg was then administered once a day for 9 consecutive days. On the tenth day of once-daily relacorilant dosing, a single dose of midazolam 2.5 mg was administered in combination with relacorilant 350 mg and intensive PK samples were again collected at pre-dose though 24 hours post-dose. On the following day, a single dose of 15 mg of pioglitazone was administered in combination with relacorilant 350 mg and intensive pharmacokinetic (PK) samples were again collected at pre-dose through 72 hours post-dose. The plasma concentrations of midazolam and its metabolite, 1-OH midazolam, and pioglitazone and its metabolite, pioglitazone M4 were evaluated by validated bioanalytical assays on each of dosing occasions of midazolam or pioglitazone.
# [4] = Pharmacokinetics of nab-paclitaxel alone or with relacorilant in patients with advanced solid tumors (Study CORT125134-550); type: in vivo, human; details: cancer patients; same dose administered alone as comparison
# Excerpt: The combination of relacorilant and nab-paclitaxel has been evaluated in patients with advanced solid tumors.
# [5] = target: T2, CYP2C8; test: In vitro CYP inhibition assay, Assay 1 (3-CYP mix); type: in vitro ADME; parameters: from tissue; host or cells: healthy human subjects, in vivo (endogenous enzyme); details: CYP2C8 expressed in E. coli, substrate amodiaquine, 10 min incubation, 37° C., pH 7.4
# Protocol: Cytochrome P450 (CYP) isoforms CYP2B6, CYP2C8 and CYP3A5, heterologously expressed in E. coli, were obtained from Cypex and mixed to produce a 3-CYP mix. […] A selective and FDA accepted substrate for each isoform was present in the reaction at a concentration around its Km.
# (§2) The CYP mix and a CYP substrate cocktail were added and the tubes warmed for 3 minutes whilst mixing on a BioShake IQ (37° C., 1500 rpm). NADPH (final concentration 1 mM) was added and the mixture was incubated for 10 minutes. Methanol containing an internal standard (1 μM tolbutamide) was then added to all samples, and these were mixed and placed at −20° C. for ≥1 hour to quench the reaction and allow protein to precipitate.
# All samples were centrifuged (2500×g, 20 minutes, 4° C.). The supernatants were transferred to a fresh 96 well plate, compatible with an autosampler. The plate was sealed with a pre-slit silicone mat and the metabolites were analyzed by LC-MS/MS.
# Control CYP inhibitors (IC50—appropriate concentration range, final assay concentration 1% DMSO) were added as a cocktail. […]
# In Assay 1, the final concentration of the 3-CYP mix was 18 pmol/mL for CYP2B6 (where pmol is picomoles), 1 pmol/mL for CYP2C and 5 pmol/mL for CYP3A5. […] The metabolites measured were: CYP2B6, hydroxybupropion; CYP2C8, N-desethyl amodiaquine; CYP3A5, 1′-hydroxymidazolam. […]
# [6] = target: T1, CYP3A4; test: In vitro CYP inhibition assay, Assay 2 (5-CYP mix); type: in vitro ADME; parameters: from tissue; host or cells: healthy human subjects, in vivo (endogenous enzyme); details: CYP3A4 expressed in E. coli, substrate midazolam, 10 min incubation, 37° C., pH 7.4
# Protocol: In a separate assay, isoforms for CYP1A2, CYP2C9, CYP2C19, CYP2D6, and CYP3A4 heterologously expressed in E. coli and obtained from Cypex as a custom made mixture of 5 isoforms. A selective and FDA accepted substrate for each isoform was present in the reaction at a concentration around its Km.
# as §2
# All samples were centrifuged (2500×g, 20 minutes, 4° C.). […] The plate was sealed with a pre-slit silicone mat and the metabolites were analyzed by LC-MS/MS. […]
# In Assay 2, the final concentration of the 5-CYP mix was 32.5 pmol/ml for each of the enzymes evaluated (i.e., CYP1A2, CYP2C9, CYP2C19, CYP2D6, and CYP3A4). […]
# In Assay 2, the CYP substrate cocktail comprised the following components: CYP1A2, tacrine; CYP2C9, diclofenac; CYP2C19, (S)mephenytoin; CYP2D6, bufuralol; CYP3A4, midazolam. The metabolites measured were: CYP1A2, 1-hydroxytacrine; CYP2C9, 4′-hydroxydiclofenac; CYP2C19, 4′-hydroxymephenytoin; CYP2D6, hydroxybufuralol; CYP3A4, 1′-hydroxymidazolam. […]
# [7] = plasma, healthy subjects, single oral 2.5 mg midazolam hydrochloride alone, Day 1
# [8] = plasma, healthy subjects, single oral 2.5 mg midazolam hydrochloride with 350 mg relacorilant, Day 14
# [9] = 100 * Test/Reference, pioglitazone with 350 mg relacorilant (Day 15) vs pioglitazone alone (Day 2)
compound,measurement,setting,value
OCc1ncc2n1-c1ccc(Cl)cc1C(c1ccccc1F)=NC2 [1-OH midazolam],"AUC0-tz, Ratio of Geometric LSMs (%)",[1],796.64%
same,"AUCinf, Ratio of Geometric LSMs (%)",[1],814.51%
same,"Cmax, Ratio of Geometric LSMs (%)",[1],164.86%
same,"AUC0-tz, Geometric LSM, Reference (Day 1) Treatment A",[1]; [7],9.360 ng·h/mL
same,"AUCinf, Geometric LSM, Reference (Day 1) Treatment A",[1]; [7],10.28 ng·h/mL
same,"Cmax, Geometric LSM, Reference (Day 1) Treatment A",[1]; [7],4.038 ng/mL
same,"AUC0-tz, Geometric LSM, Test (Day 14) Treatment D",[1]; [8],74.56 ng·h/mL
same,"AUCinf, Geometric LSM, Test (Day 14) Treatment D",[1]; [8],83.72 ng·h/mL
same,"Cmax, Geometric LSM, Test (Day 14) Treatment D",[1]; [8],6.657 ng/mL
"Cc1ncc2n1-c1ccc(Cl)cc1C(c1ccccc1F)=NC2 [Midazolam, midazolam]","AUC0-tz, Ratio of Geometric LSMs (%)",[1],878.43%
same,"AUCinf, Ratio of Geometric LSMs (%)",[1],892.81%
same,"Cmax, Ratio of Geometric LSMs (%)",[1],310.98%
same,"increase in plasma exposure (AUCinf) when administered with relacorilant, relative to midazolam alone","[1]; healthy subjects, once daily relacorilant 350 mg",8 fold and > 8 fold
same,AUC(0-inf),[2],33 ng·h/mL
same,AUC(0-t),[2],30.9 ng·h/mL
same,Cmax,[2],11.8 ng/mL
CC(O)c1ccc(CCOc2ccc(CC3SC(=O)NC3=O)cc2)nc1 (stereo not drawn) [Pioglitazone M4],"AUC0-tz, Geometric LSM, Reference (Day 2) Treatment B","[3]; human, in vivo, po, 15 mg",10460 ng·h/mL
same,"AUCinf, Geometric LSM, Reference (Day 2) Treatment B","[3]; human, in vivo, po, 15 mg",12890 ng·h/mL
same,"Cmax, Geometric LSM, Reference (Day 2) Treatment B","[3]; human, in vivo, po, 15 mg",237.3 ng/mL
"CCc1ccc(CCOc2ccc(CC3SC(=O)NC3=O)cc2)nc1 (stereo not drawn) [Pioglitazone, pioglitazone]","AUC0-tz, Ratio of Geometric LSMs (%)",[3]; [9],74.71%
same,"AUCinf, Ratio of Geometric LSMs (%)",[3]; [9],74.83%
same,"Cmax, Ratio of Geometric LSMs (%)",[3]; [9],77.82%
same,change in plasma exposure/concentration when administered with relacorilant,"[3]; healthy volunteers, once daily relacorilant 350 mg, pioglitazone 15 mg",no increase; also recorded: did not increase
same,AUC(0-inf),"[3]; human, plasma, po, 15 mg",5410 ng·h/mL
same,AUC(0-t),"[3]; human, plasma, po, 15 mg",5290 ng·h/mL
same,Cmax,"[3]; human, plasma, po, 15 mg",484 ng/mL
CC(=O)O[C@H]1C(=O)[C@@]2(C)[C@H]([C@H](OC(=O)c3ccccc3)[C@]3(O)C[C@H](OC(=O)[C@H](O)[C@@H](NC(=O)c4ccccc4)c4ccccc4)C(C)=C1C3(C)C)[C@]1(OC(C)=O)CO[C@@H]1C[C@@H]2O [paclitaxel],"increase in plasma levels/exposure (AUC) when co-administered with relacorilant, relative to alone",[4],about 80%
"Cn1cc(S(=O)(=O)N2CCC3=Cc4c(cnn4-c4ccc(F)cc4)C[C@]3(C(=O)c3cc(C(F)(F)F)ccn3)C2)cn1 [relacorilant, (R)-(1-(4-fluorophenyl)-6-((1-methyl-1H-pyrazol-4-yl)sulfonyl)-4,4a,5,6,7,8-hexahydro-1H-pyrazolo[3,4-g]isoquinolin-4a-yl)(4-(trifluoromethyl)pyridine-2-yl)methanone]",inhibition of CYP2C8 in vivo,"[3]; healthy subjects, once daily relacorilant 350 mg, probe pioglitazone",does not inhibit
same,IC50,[5],210 nM
same,IC50,[6],1320 nM
